Ten compounds from patent US8895695B2, “Template-fixed beta-hairpin peptidomimetics with CXCR4 antagonizing activity” (priority 2003, dated 2014) can be followed below.

Read-outs that look alike come from different tables or passages of the source. Bridge positions count the residues as written; N and C are the ends. Square brackets hold non-standard residues; d marks the D form. Peptide text beside a SMILES is read from it. * marks the point of attachment. Decanoyl(3,6,9-trioxa) = COCCOCCOCC(=O)*; 2Nal = N[C@@H](Cc1ccc2ccccc2c1)C(=O)O; Cit = NC(=O)NCCC[C@H](N)C(=O)O; Dab = NCC[C@H](N)C(=O)O; Dap = NC[C@H](N)C(=O)O

Data set [1] has as its system human red blood cells (hRBC). The experiment in a line: Hemolysis. The class given is cell-based. Here is the method: The peptides were tested for their hemolytic activity against human red blood cells (hRBC). Fresh hRBC were washed three times with phosphate buffered saline (PBS) by centrifugation for 10 min at 2000×g. Peptides at a concentration of 100 μM were incubated with 20% v/v hRBC for 1 hour at 37° C. The final erythrocyte concentration was approximately 0.9×10^9 cells per ml. A value of 0% resp. 100% cell lysis was determined by incubation of the hRBC in the presence of PBS alone and respectively 0.1% Triton X-100 in H2O. The samples were centrifuged and the supernatant was 20-fold diluted in PBS buffer and the optical density (OD) of the sample at […] was measured. The 100% lyses value (OD540H2O) gave an OD540 of approximately 1.3-1.8. Percent hemolysis was calculated as follows: (OD540peptide/OD540H2O)×100%.

Data set [2] can be described thus: in vitro. The conditions noted are these: human.
The target in data set [3] is CXCR4 (Homo sapiens, UniProt P61073). Put plainly: Ca2+-assay method 2 (Flexstation, SDF-1 induced calcium mobilization). Also on record: expressed in transfected cells; host or cells: mouse pre-B cell line 300-19. The class given is cell-based. The conditions noted are these: method 2 (Ex. 54-160), mouse pre-B cell line 300-19 with human CXCR4, 10 nM SDF-1. Here is the method: 2.2. Ca^2+-Assay: CXCR4-Antagonizing Activity of the Peptides.
Sequence of CXCR4 (P61073 whole entry): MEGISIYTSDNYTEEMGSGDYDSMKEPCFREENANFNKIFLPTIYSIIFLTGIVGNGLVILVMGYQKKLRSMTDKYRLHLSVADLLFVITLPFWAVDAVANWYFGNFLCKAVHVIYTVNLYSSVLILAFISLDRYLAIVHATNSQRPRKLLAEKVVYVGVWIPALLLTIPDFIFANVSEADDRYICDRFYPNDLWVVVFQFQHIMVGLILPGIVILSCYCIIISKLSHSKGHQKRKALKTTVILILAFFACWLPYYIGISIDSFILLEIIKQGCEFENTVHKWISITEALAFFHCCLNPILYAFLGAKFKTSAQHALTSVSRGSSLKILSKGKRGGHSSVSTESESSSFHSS
The cells were batch loaded with the Calcium 3 Assay kit (Molecular Devices) in assay buffer (Hanks Balanced salt solution, HBSS, 20 mM HEPES, pH 7.4, 0.1% BSA) for 1 h at room temperature and then 200,000 labeled cells were dispensed into black 96 well assays plates (Costar No. 3603). A 20-fold concentrated solution of peptide in assay buffer was added to the cells and the whole plate was centrifuged to settle the cells to the bottom of the wells. Calcium mobilization induced by 10 nM stromal-derived factor-1 (SDF-1) was measured in the Flexstation 384 (excitation, 485 nM; emission, 525 nM) for 90 seconds. A maximal change in fluorescence response above baseline was used to calculate antagonist activity. The data for dose response curves (antagonist concentration versus % maximum response) were fitted to a four parameter logistic equation using SoftmaxPro 4.6 (Molecular Devices), from which IC50% values were calculated.

Setting [4] is: read-out: IC50 (nM) Ca^2+ assay.
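Throughout, for GI50: MTT reduction read as absorbance at 595 nm, blank-corrected and expressed as percent growth relative to the time-zero cell reading, triplicate wells per concentration.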

Turning to `N=C(N)NCCC[C@@H]1NC(=O)[C@@H]2CSSC[C@H](NC(=O)[C@H](Cc3ccc4ccccc4c3)NC(=O)[C@H](CCCNC(=N)N)NC(=O)[C@H](CCCNC(=N)N)NC(=O)[C@H]3CCCN3C(=O)CNC1=O)C(=O)N[C@@H](Cc1ccc(O)cc1)C(=O)N[C@@H](CCC(N)=O)C(=O)N[C@@H](CCCCN)C(=O)N1CCC[C@@H]1C(=O)N1CCC[C@H]1C(=O)N[C@@H](Cc1ccc(O)cc1)C(=O)N[C@@H](CCCNC(=N)N)C(=O)N[C@@H](CCCNC(N)=O)C(=O)N2` [Ex. 132] (cyclo(RR[2Nal]CYQK[dP]PYR[Cit]CRG[dP]); disulfide 4-13), the Hemolysis at 100 μM in data set [1] came out at 0%. In data set [2], growth was halved (GI50 at 48 h) at 76000 nM.
As to `CC(C)C[C@@H]1NC(=O)[C@@H]2CCCN2C(=O)[C@H]2CCCN2C(=O)[C@H](CCCCN)NC(=O)[C@H](CCC(N)=O)NC(=O)[C@H](Cc2ccc(O)cc2)NC(=O)[C@@H]2CSSC[C@H](NC(=O)[C@H](CCCNC(N)=O)NC(=O)[C@H](CCCNC(=N)N)NC1=O)C(=O)N[C@@H](CCCNC(=N)N)C(=O)NCC(=O)N1CCC[C@@H]1C(=O)N[C@@H](CCCNC(=N)N)C(=O)N[C@@H](CCCNC(=N)N)C(=O)N[C@@H](Cc1ccc3ccccc3c1)C(=O)N2` [Ex. 144] (cyclo(LR[Cit]CRG[dP]RR[2Nal]CYQK[dP]P); disulfide 4-11), in data set [3] (setting [4]), the IC50 is 0.18 nM.
For `N=C(N)NCCC[C@@H]1NC(=O)[C@@H]2CSSC[C@H](NC(=O)[C@H](Cc3c[nH]c4ccccc34)NC(=O)[C@H](CCCNC(=N)N)NC(=O)[C@H](CCCNC(=N)N)NC(=O)[C@H]3CCCN3C(=O)CNC1=O)C(=O)N[C@@H](Cc1ccc(O)cc1)C(=O)N[C@@H](CCCNC(N)=O)C(=O)N[C@@H](CCCCN)C(=O)N1CCC[C@@H]1C(=O)N1CCC[C@H]1C(=O)N[C@@H](Cc1ccc(O)cc1)C(=O)N[C@@H](CCCNC(=N)N)C(=O)N[C@@H](CCCNC(N)=O)C(=O)N2` [Ex. 128] (cyclo(YR[Cit]CRG[dP]RRWCY[Cit]K[dP]P); disulfide 4-11), the IC50 in data set [3] (setting [4]) was 4.5 nM.
Regarding `N=C(N)NCCC[C@@H]1NC(=O)[C@@H]2CSSC[C@H](NC(=O)[C@H](Cc3ccc4ccccc4c3)NC(=O)[C@H](CCCNC(=N)N)NC(=O)[C@H](CCCNC(=N)N)NC(=O)[C@H]3CCCN3C(=O)CNC1=O)C(=O)N[C@@H](Cc1ccc(O)cc1)C(=O)N[C@@H](CCCNC(N)=O)C(=O)N[C@@H](CCCCN)C(=O)N[C@H]1CSSC[C@H](NC(=O)[C@H](Cc3ccc(O)cc3)NC(=O)CNC(=O)[C@H](CCCCN)NC(=O)[C@H](Cc3ccc(O)cc3)NC1=O)C(=O)N[C@@H](Cc1ccc(O)cc1)C(=O)N[C@@H](CCCNC(=N)N)C(=O)N[C@@H](CCCNC(N)=O)C(=O)N2` [Ex. 154] (cyclo([2Nal]CY[Cit]KCYKGYCYR[Cit]CRG[dP]RR); disulfide 2-15, 6-11), in data set [3] (IC50 (nM) Ca^2+ assay), the IC50 came to 9.3 nM.
`N=C(N)NCCC[C@@H]1NC(=O)[C@H](CCCNC(=N)N)NC(=O)[C@H]2CCCN2C(=O)CNC(=O)[C@H](CCN)NC(=O)[C@@H]2CSSC[C@H](NC(=O)[C@H](Cc3c[nH]c4ccccc34)NC1=O)C(=O)N[C@@H](Cc1ccc(O)cc1)C(=O)N[C@@H](CCC(N)=O)C(=O)N[C@@H](CCCCN)C(=O)N1CCC[C@@H]1C(=O)N1CCC[C@H]1C(=O)N[C@@H](Cc1ccc(O)cc1)C(=O)N[C@@H](CCCNC(=N)N)C(=O)N[C@@H](CCCNC(N)=O)C(=O)N2` [Ex. 111] (cyclo(YR[Cit]C[Dab]G[dP]RRWCYQK[dP]P); disulfide 4-11) came in with a Hemolysis at 100 μM in data set [1] of 0%. This compound also returned a GI50 at 48 h in data set [2] above 100000 nM.
Take `N=C(N)NCCC[C@@H]1NC(=O)[C@@H]2CSSC[C@H](NC(=O)[C@H](Cc3c[nH]c4ccccc34)NC(=O)[C@H](CCCNC(=N)N)NC(=O)[C@H](CCCNC(=N)N)NC(=O)[C@H]3CCCN3C(=O)CNC1=O)C(=O)N[C@@H](Cc1ccc(O)cc1)C(=O)N[C@@H](CCCNC(=N)N)C(=O)N[C@@H](CCCCN)C(=O)N[C@H]1CSSC[C@H](NC(=O)[C@H](Cc3ccc(O)cc3)NC(=O)CNC(=O)[C@H](CCCCN)NC(=O)[C@H](Cc3ccc(O)cc3)NC1=O)C(=O)N[C@@H](Cc1ccc(O)cc1)C(=O)N[C@@H](CCCNC(=N)N)C(=O)N[C@@H](CCCCN)C(=O)N2` [Ex. 160] (cyclo(CRG[dP]RRWCYRKCYKGYCYRK); disulfide 1-8, 12-17): the IC50 in data set [3] (IC50 (nM) Ca^2+ assay) came to 0.38 nM.
As for `N=C(N)NCCC[C@@H]1NC(=O)[C@@H]2CSSC[C@H](NC(=O)[C@H](Cc3c[nH]c4ccccc34)NC(=O)[C@H](CCCNC(=N)N)NC(=O)[C@H](CCCNC(=N)N)NC(=O)[C@H]3CCCN3C(=O)CNC1=O)C(=O)N[C@@H](Cc1ccc(O)cc1)C(=O)N[C@@H](CCC(N)=O)C(=O)N[C@@H](CCCCN)C(=O)N[C@H]1CSSC[C@H](NC(=O)[C@H](Cc3ccc(O)cc3)NC(=O)CNC(=O)[C@H](CCCCN)NC(=O)[C@H](Cc3ccc(O)cc3)NC1=O)C(=O)N[C@@H](Cc1ccc(O)cc1)C(=O)N[C@@H](CCCNC(=N)N)C(=O)N[C@@H](CCCNC(N)=O)C(=O)N2` [Ex. 155] (cyclo(CRG[dP]RRWCYQKCYKGYCYR[Cit]); disulfide 1-8, 12-17), in data set [3] (IC50 (nM) Ca^2+ assay), the concentration for half-maximal inhibition (IC50) turned out to be 0.46 nM.
For `C[C@@H](O)[C@@H]1NC(=O)[C@H](CCCNC(=N)N)NC(=O)[C@H](Cc2ccc(O)cc2)NC(=O)[C@@H]2CCCN2C(=O)[C@H]2CCCN2C(=O)[C@H](CCCCN)NC(=O)[C@H](CCCNC(N)=O)NC(=O)[C@H](Cc2ccc(O)cc2)NC(=O)[C@@H]2CSSC[C@H](NC1=O)C(=O)N[C@@H](CCCNC(=N)N)C(=O)NCC(=O)N1CCC[C@@H]1C(=O)N[C@@H](CCCNC(=N)N)C(=O)N[C@@H](CCCNC(=N)N)C(=O)N[C@@H](Cc1ccc(O)cc1)C(=O)N2` [Ex. 146] (cyclo(YRTCRG[dP]RRYCY[Cit]K[dP]P); disulfide 4-11), in data set [3] (setting [4]), the IC50 amounted to 0.24 nM.
For `N=C(N)NCCC[C@@H]1NC(=O)[C@@H]2CSSC[C@H](NC(=O)[C@H](Cc3ccc4ccccc4c3)NC(=O)[C@H](CCCNC(=N)N)NC(=O)[C@H](CN)NC(=O)[C@H]3CCCN3C(=O)CNC1=O)C(=O)N[C@@H](Cc1ccc(O)cc1)C(=O)N[C@@H](CCCNC(N)=O)C(=O)N[C@@H](CCCCN)C(=O)N1CCC[C@@H]1C(=O)N1CCC[C@H]1C(=O)N[C@@H](Cc1ccc(O)cc1)C(=O)N[C@@H](CCCNC(=N)N)C(=O)N[C@@H](CCCNC(N)=O)C(=O)N2` [Ex. 135] (cyclo(YR[Cit]CRG[dP][Dap]R[2Nal]CY[Cit]K[dP]P); disulfide 4-11), the Hemolysis at 100 μM in data set [1] worked out at 0.1%. The compound further registered a GI50 at 48 h in data set [2] of 30000 nM.
Regarding `COCCOCCOCC(=O)NCC[C@@H]1NC(=O)[C@H]2CCCN2C(=O)CNC(=O)[C@H](CCCNC(=N)N)NC(=O)[C@@H]2CSSC[C@H](NC(=O)[C@H](Cc3c[nH]c4ccccc34)NC(=O)[C@H](CCCNC(=N)N)NC1=O)C(=O)N[C@@H](Cc1ccc(O)cc1)C(=O)N[C@@H](CCCNC(N)=O)C(=O)N[C@@H](CCCCN)C(=O)N1CCC[C@@H]1C(=O)N1CCC[C@H]1C(=O)N[C@@H](Cc1ccc(O)cc1)C(=O)N[C@@H](CCCNC(=N)N)C(=O)N[C@@H](CCCNC(N)=O)C(=O)N2` [Ex. 142] (cyclo(YR[Cit]CRG[dP][Dab](Decanoyl(3,6,9-trioxa))RWCY[Cit]K[dP]P); disulfide 4-11), in data set [3] (IC50 (nM) Ca^2+ assay), the IC50 is 96.9 nM.
